Experimental data published in patent US20240309059A1, “PEPTIDE HAVING ANTI-VIRAL ACTIVITY, ANTI-VIRAL AGENT COMPRISING SAID PEPTIDE, AND METHOD FOR PRODUCING SAID ANTI-VIRAL AGENT” (National University Corporation Tokyo Medical and Dental …, priority 2021, published 2024).
Ends that are not written are not given here.

Legend:
[1] = tested on: SARS-COV-2 UK variant (B.1.1.7)
[2] = tested on: SARS-COV-2 Brazilian variant (P.1)
[3] = biological target: receptor binding domain (RBD) in the SARS-COV-2 South African variant (B.1.351) (Severe acute respiratory syndrome coronavirus 2, UniProt P0DTC2, E484K/K417N/N501Y)
[4] = biological target: receptor binding domain (RBD) in the SARS-COV-2 Indian variant (κ type (B.1.617.1)) (Severe acute respiratory syndrome coronavirus 2, UniProt P0DTC2, E484Q/L452R)
[5] = biological target: receptor binding domain (RBD) in the SARS-COV-2 Omicron (sublineage BA.1) variant (B.1.1.529/BA.1) (Severe acute respiratory syndrome coronavirus 2, UniProt P0DTC2, E484A/G339D/G446S/G496S/K417N/N440K/N501Y/Q493R/Q498R/S371L/S373P/S375F/S477N/T478K/Y505H)
[6] = biological target: receptor binding domain (RBD) in the SARS-COV-2 Brazilian variant (P.1) (Severe acute respiratory syndrome coronavirus 2, UniProt P0DTC2, E484K/K417T/N501Y)
[7] = biological target: receptor binding domain (RBD) in the SARS-COV-2 Indian variant (δ type (B.1.617.2)) (Severe acute respiratory syndrome coronavirus 2, UniProt P0DTC2, L452R/T478K)
[8] = biological target: receptor binding domain (RBD) in the SARS-COV-2 UK variant (B.1.1.7) (Severe acute respiratory syndrome coronavirus 2, UniProt P0DTC2, N501Y)
[9] = tested on: SARS-COV-2 Indian variant (δ type) (B.1.617.2)
[10] = tested on: SARS-COV-2 Omicron (sublineage BA.1) variant (B.1.1.529/BA.1)

Sequence | IC50 [1] [nM] | IC50 [9] [nM] | IC50 [10] [nM] | also measured
DKEWILQKIYEIMRRLDEEGHAEASMRVSDLIYEFMKKD [Ce9] | 13 |  |  | IC50 [2]: 1200 nM
DKEWILQKIYEIMRRLDEEGHGEASLRVSDLIYEFMKKD [Ce41] | 0.68 |  |  | binding activity to the receptor binding domain (RBD) [3]: high binding activity; binding activity to the receptor binding domain (RBD) [4]: high binding activity; binding activity to the receptor binding domain (RBD) [5]: cannot maintain binding; binding activity to the receptor binding domain (RBD) [6]: high binding activity; binding activity to the receptor binding domain (RBD) [7]: high binding activity; binding activity to the receptor binding domain (RBD) [8]: high binding activity; dissociation from the RBD once bound [8]: does not dissociate at all
DKEWILQKIYEIMRRLDEEGHGEASLRVSDLIYEFMKRD [Ce59] |  | 16 |  | 
DKEWILYKIYEIMVRLDEEGHGEASLMVSDLIYEFMKRD [Ce149] | 0.0021 | 0.15 | 1 | 
DKLWILQKIYEIMVRLDEEGHGEASLMVSDLIYEFMKRD [Ce172] | 0.0022 | 0.53 | 0.038 | 
